Read-outs that look alike come from different tables or passages of the source.
Tests used:
[1] = system: MiaPaCa human pancreatic cancer cells; test: Cytotoxicity study, SRB assay, MiaPaCa cells; assay type: cell-based; settings: 96 hours, read-out: IC50 at 72* or 96 hours
Description: (§1) Example 1 illustrates a method of determining the antineoplastic activity of iminopyrrolidone thiol amino acid conjugates in vitro. Ninety-six (96) well plates (BD Biosciences, San Jose, Calif.) were seeded with approximately 5000 cells in 160 μl of growth medium per well in the last eleven columns of each plate. The first column of each plate was filled with 160 μl of growth medium containing no cells to be used as a blank. Following a 24-hour incubation period, the cells in the last ten columns were drugged (leaving row one as a blank and row two as a control with uninhibited cell growth) with 40 μl of either simexonyl homocysteine or imexon in growth medium. The quantity of drug added to the wells of each respective column was constant, but varied from column to column such that the resulting concentration in the total volume of each individual well ranged from 1 μM to 1000 μM. […]

[2] = system: Raji lymphoma cells; test: Cytotoxicity study, MTT assay, Raji cells; assay type: cell-based, human; settings: 96 hours, read-out: IC50 at 72* or 96 hours
Description: as §1

[3] = system: PC-3 human prostate cancer cells; test: Cytotoxicity study, SRB assay, PC-3 cells; assay type: cell-based; settings: PC-3 - Prostate, 72 hours (*), read-out: IC50 at 72* or 96 hours
Description: as §1

[4] = system: A375 human malignant melanoma cells; test: Cytotoxicity study, SRB assay, A375 cells; assay type: cell-based; settings: 96 hours, read-out: IC50 at 72* or 96 hours
Description: as §1

[5] = system: DB lymphoma cells; test: Cytotoxicity study, MTT assay, DB cells; assay type: cell-based, human; settings: 96 hours, read-out: IC50 at 72* or 96 hours
Description: as §1

[6] = system: 8226/s human myeloma cells (chemotherapy sensitive); test: Cytotoxicity study, MTT assay, 8226/s cells; assay type: cell-based; settings: 8226/s - Myeloma, 96 hours, read-out: IC50 at 72* or 96 hours
Description: as §1

[7] = system: DB lymphoma cells; settings: 45, 90 or 180 μM, 48 hours after drug exposure, FIG. 6
Description: DB and Raji lymphoma cells were kindly provided by Dr. Alan List (University of Arizona, Tucson, Ariz.). All cell lines were cultured in RPMI 1640 media (Mediatech, Herndon, Va.) enhanced with 5% (v/v) (10% for DB and Raji cells) heat-inactivated bovine calf serum (Hyclone Laboratories, Logan, Utah), 2 mM L-glutamine, 100 U/ml penicillin, and 100 μg/ml streptomycin (each from Invitrogen, Carlsbad, Calif.) in a humidified incubator containing 5% CO2 at 37° C.
DB lymphoma cells were cultured in ninety-six (96) well plates (BD Biosciences) under conditions as described hereinbefore. […] Forty eight hours after drug exposure, the percentage of necrotic, viable, proapoptotic, and apoptotic cells in each respective well was measured using an annexin V—FITC (fluorescein isothiocyanate labeled annexin V) apoptosis detection kit (BioVision Labs) according to the manufacturer's instructions in conjunction with a Bectin Dickenson FACScan (San Jose, Calif.) fluorescence activated cell sorter using CellQuest Pro software (BD Biosciences). […]
A threshold intensity for the fluorescence signal permits one to distinguish between proapoptotic and apoptotic cells in the flow cytometric analysis, but both are indicative of an induction of apoptosis by the drug.

[8] = system: DU-145 human prostate cancer cells; test: Cytotoxicity study, SRB assay, DU-145 cells; assay type: cell-based; settings: DU-145 - Prostate, 96 hours, read-out: IC50 at 72* or 96 hours
Description: as §1

[9] = system: 8226/I10 human myeloma cells (chemotherapy resistant); test: Cytotoxicity study, MTT assay, 8226/I10 cells; assay type: cell-based; settings: 8226/I10 - Myeloma, 96 hours, read-out: IC50 at 72* or 96 hours
Description: as §1

Compound	IC50 ([1]; MiaPaCa - Pancreas) [µM]	IC50 [2] [µM]	IC50 [3] [µM]	IC50 [4] [µM]	IC50 [5] [µM]	IC50 [6] [µM]	induction of apoptosis (percentage of proapoptotic and apoptotic cells) [7]	IC50 [8] [µM]	IC50 [9] [µM]	IC50 ([1]; Homo sapiens, MIA PaCa-2, MiaPaCa - Pancreas) [µM]	IC50 ([2]; Homo sapiens) [µM]	IC50 ([5]; Homo sapiens) [µM]
simexonyl homocysteine	46	22	49	15.4	23	13.6	induced apoptosis	143	95			
NC1=NC(=O)N2CC12 (racemic) [imexon, (5RS)-4-amino-1,3-diazabicyclo[3.1.0]hex-3-en-2-one, reference compound]										190	50	54

From patent US20100273848A1, “IMINOPYRROLIDONE THIOL AMINO ACID CONJUGATES, PHARMACEUTICAL COMPOSITIONS AND METHODS FOR THE TREATMENT OF CANCER” (THE ARIZONA BD OR REG ON BEHALF OF THE UNIV OF AZ, priority 2007, published 2010)
